One assay has as its target T1, hNaV1.2 (SCN2A) (Homo sapiens, UniProt Q99250).
T1 construct: expressed in transfected cells
The assay can be described thus: Use-dependent inhibition of the CNS Nav1.2 sodium channel. In kind it is cell-based. The settings on record: use-dependent block, 25 Hz, pulse 20, read-out: Nav1.2 UDB 25 Hz 10 uM. Here is the method: HEK-293 cells stably expressing wild-type (WT) hNaV1.2 (SCN2A NCBI # NM_021007.2, SCN1B NCBI # NM_001037.4, SCN2B NCBI # NM_004588.2) were used to record INa. Cells are maintained with standard tissue culture procedures and stable channel expression is maintained with 800 ug/mL G418 and 3 ug/mL Puromycin in the culture medium. Unless otherwise noted, all reagents are purchased from Sigma-Aldrich (St Louis, Mo., U.S.A.).
Assays measuring Use-Dependent Block (UDB) of Nav1.2 are performed on an automated electrophysiology platform, QPatch 16X or QPatch HT (Sophion Bioscience, Copenhagen, Denmark), using the whole cell patch clamp technique to measure currents through the cell membrane. Series resistance compensation is set to 100% and series resistance and whole-cell compensation are performed automatically. Currents stored in the Sophion Bioscience Oracle database (Sophion Bioscience, Copenhagen, Denmark). Analysis is performed using QPatch Assay software and data are compiled in Excel 2010 (Microsoft, Seattle, Wash., U.S.A.).
The internal (pipette) solution consists of (in mM) 105 CsF, 10 NaF, 20 CsCl, 2 EGTA, 10 HEPES, 10 Dextrose with a pH of 7.35 and osmolarity of 300 mOsmol/kg. The external (bath) solution contains in (mM): 145 NaCl, 4 KCl, 1.8 CaCl2, 1 MgCl2, 10 dextrose, 10 HEPES, with a pH of 7.35 and osmolarity of 310 mOsmol/kg. Experiments are carried out at 23-25° C.
Compound stocks are routinely made by the Gilead Sample Bank in vials to 10 mM in dimethyl sulfoxide (DMSO). In some cases, when compounds are not soluble in DMSO, they are made in 100% ethanol. Stocks are sonicated as necessary. […]
Cells are allowed to stabilize for 10 min after establishment of the whole-cell configuration before current is measured. The test compound is applied 2 times at 60 second intervals. After the second compound addition, a 200 second wait period was imposed to allow for equilibration. Leak currents are subtracted by using an online P/4 procedure and all currents are low-pass Bessel filtered at 5 kHz and digitized at […].
Results are presented as mean percentage inhibition.
Use-dependent block of Nav1.2 peak current is measured during pulse number 20 of a voltage pulse train (0 mV, 20 ms, 20 pulses, 25 Hz) from a holding potential of −120 mV.
Currents are normalized to the peak current recorded in response to the first pulse in each frequency train. The voltage protocol for UDB was performed in the absence and presence of compound and percentage inhibition was calculated with respect to the compound free condition.

The target of assay [1] is wild-type human cardiac sodium channel, hNav1.5 (Homo sapiens, UniProt Q14524). The experiment in a line: Peak INa screening assay (tonic block and use-dependent block). In kind it is cell-based. In short, it runs like this: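 Whole-cell automated patch clamp, 23-25° C, on hNav1.5 alpha-only HEK293 cells with Na+ lowered to 40 mM by choline. Block measured after two additions of 1 or 3 μM compound and 200 s wait: tonic at 0.1 Hz, use-dependent at 50th pulse (−20 mV, 20 ms, 3 Hz) from −100 mV, relative to drug-free, rundown corrected.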
Chain of wild-type human cardiac sodium channel, hNav1.5 (Q14524 whole entry): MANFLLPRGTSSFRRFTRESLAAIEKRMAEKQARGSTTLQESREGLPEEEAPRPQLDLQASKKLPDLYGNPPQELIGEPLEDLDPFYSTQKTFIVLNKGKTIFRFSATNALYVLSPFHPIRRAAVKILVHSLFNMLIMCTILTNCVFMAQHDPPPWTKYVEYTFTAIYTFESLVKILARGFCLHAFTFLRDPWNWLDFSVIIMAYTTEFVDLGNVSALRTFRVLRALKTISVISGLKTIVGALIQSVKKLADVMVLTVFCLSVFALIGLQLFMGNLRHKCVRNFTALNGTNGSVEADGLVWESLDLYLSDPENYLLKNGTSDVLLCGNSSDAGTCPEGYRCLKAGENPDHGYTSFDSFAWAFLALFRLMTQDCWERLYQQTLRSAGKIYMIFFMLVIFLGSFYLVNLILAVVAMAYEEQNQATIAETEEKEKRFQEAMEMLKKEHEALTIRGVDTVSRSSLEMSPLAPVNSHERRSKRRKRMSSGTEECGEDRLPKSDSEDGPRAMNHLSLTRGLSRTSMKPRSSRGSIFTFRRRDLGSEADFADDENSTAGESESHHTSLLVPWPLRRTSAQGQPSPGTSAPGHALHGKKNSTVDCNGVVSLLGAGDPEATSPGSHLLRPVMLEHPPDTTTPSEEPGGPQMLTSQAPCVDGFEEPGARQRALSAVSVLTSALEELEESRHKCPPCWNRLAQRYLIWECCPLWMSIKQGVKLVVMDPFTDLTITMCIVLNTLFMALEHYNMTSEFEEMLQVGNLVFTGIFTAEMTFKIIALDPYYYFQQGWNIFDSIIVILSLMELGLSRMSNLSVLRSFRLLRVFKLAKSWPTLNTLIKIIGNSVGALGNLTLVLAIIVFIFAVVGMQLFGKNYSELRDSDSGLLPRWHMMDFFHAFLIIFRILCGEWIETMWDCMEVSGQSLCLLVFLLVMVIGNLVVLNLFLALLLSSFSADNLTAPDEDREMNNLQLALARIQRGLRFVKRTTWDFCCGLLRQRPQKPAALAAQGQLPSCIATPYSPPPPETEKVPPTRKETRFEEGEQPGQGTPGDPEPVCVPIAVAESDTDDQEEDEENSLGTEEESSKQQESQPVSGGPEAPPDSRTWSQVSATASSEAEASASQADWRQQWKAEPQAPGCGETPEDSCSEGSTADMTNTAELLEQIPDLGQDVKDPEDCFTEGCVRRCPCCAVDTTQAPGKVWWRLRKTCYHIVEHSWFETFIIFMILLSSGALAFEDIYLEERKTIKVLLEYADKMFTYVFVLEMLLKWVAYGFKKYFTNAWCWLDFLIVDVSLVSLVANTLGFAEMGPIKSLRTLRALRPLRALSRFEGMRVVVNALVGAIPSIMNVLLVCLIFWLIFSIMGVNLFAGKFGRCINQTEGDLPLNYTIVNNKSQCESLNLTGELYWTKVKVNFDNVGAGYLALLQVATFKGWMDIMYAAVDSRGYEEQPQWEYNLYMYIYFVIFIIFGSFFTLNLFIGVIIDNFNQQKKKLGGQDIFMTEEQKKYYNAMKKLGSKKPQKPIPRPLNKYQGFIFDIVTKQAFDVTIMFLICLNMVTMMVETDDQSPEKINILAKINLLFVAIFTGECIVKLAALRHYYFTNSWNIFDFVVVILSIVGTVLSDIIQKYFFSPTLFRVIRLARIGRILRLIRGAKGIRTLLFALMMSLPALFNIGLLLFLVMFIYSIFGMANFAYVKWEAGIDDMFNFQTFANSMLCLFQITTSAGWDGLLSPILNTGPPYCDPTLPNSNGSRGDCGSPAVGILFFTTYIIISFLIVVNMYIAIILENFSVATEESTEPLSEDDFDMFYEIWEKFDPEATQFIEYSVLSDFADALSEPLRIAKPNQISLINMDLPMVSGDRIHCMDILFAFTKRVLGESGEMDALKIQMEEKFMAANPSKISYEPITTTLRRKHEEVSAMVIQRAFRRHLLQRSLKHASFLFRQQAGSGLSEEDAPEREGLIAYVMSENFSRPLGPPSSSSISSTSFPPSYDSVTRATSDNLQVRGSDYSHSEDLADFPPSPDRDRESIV

Where [2] appears, read: tonic block of Peak INa, 0.1 Hz, holding -100 mV, read-out: Peak TB 3 uM.
The mark [3] stands for this setting: use-dependent block of Peak INa, 3 Hz, pulse 50, read-out: Peak UDB 3 Hz 3 uM.

In patent US9416115B2, “Fused heterocyclic compounds as ion channel modulators” (Gilead Sciences, Inc., priority 2013, dated 2016) one finds inhibition data, which are given here for 22 compounds.

Like-named read-outs stand apart in the source and are kept apart here.

T1 sequence (Q99250 whole entry): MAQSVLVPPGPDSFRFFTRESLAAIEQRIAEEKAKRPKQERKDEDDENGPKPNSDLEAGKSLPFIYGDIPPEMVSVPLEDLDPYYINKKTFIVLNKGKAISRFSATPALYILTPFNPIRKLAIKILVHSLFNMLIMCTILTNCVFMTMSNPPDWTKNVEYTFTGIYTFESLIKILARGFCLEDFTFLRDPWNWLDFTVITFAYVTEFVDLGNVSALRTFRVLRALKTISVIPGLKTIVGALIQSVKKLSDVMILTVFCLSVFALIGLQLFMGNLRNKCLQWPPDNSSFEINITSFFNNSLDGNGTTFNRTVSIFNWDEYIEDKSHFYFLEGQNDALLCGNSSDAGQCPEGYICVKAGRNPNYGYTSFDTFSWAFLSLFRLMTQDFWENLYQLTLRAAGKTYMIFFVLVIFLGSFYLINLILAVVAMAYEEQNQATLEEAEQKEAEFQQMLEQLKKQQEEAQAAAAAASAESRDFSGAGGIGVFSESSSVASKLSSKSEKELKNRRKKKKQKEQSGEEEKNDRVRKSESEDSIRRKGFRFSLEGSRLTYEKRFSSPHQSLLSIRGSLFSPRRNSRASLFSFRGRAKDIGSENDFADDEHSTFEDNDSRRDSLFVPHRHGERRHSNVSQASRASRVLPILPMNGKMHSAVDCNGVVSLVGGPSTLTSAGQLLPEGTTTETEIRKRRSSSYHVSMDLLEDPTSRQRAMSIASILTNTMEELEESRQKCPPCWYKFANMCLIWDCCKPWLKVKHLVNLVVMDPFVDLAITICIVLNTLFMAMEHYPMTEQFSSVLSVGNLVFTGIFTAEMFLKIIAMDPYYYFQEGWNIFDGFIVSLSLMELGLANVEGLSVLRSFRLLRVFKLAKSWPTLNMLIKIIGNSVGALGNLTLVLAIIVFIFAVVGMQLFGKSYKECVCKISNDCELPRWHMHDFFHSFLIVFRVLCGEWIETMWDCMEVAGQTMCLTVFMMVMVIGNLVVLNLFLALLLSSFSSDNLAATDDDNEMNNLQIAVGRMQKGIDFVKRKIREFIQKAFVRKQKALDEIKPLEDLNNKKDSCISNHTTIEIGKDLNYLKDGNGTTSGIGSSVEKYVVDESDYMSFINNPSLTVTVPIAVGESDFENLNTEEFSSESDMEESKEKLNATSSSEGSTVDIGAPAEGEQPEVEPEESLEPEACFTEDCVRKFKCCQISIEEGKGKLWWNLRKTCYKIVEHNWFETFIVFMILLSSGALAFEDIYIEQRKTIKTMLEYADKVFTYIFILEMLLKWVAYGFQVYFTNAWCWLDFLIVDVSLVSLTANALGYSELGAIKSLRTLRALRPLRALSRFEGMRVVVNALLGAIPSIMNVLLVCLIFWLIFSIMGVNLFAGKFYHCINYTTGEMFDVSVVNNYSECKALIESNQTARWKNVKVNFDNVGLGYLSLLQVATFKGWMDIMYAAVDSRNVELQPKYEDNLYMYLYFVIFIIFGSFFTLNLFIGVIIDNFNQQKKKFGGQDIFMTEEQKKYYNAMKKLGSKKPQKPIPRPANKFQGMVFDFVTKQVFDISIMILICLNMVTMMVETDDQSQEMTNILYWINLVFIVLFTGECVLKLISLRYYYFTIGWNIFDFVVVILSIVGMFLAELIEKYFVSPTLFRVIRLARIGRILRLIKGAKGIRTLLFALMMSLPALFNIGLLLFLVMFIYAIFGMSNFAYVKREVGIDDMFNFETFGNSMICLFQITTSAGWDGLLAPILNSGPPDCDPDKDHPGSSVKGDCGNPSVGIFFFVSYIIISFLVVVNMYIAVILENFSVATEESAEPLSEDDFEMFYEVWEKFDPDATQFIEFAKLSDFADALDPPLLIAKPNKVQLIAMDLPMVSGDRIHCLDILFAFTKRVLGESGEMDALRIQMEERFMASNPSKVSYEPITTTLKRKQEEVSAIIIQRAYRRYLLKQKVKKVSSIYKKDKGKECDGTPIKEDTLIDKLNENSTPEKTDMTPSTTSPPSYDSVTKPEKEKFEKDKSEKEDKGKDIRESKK
T1 sequence (Q07699 19-218 partner): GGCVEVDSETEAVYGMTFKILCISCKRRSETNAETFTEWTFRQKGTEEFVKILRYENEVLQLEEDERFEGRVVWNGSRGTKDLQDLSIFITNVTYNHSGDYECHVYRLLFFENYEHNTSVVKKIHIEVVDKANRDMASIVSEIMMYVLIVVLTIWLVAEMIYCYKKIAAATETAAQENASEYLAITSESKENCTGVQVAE
T1 sequence (O60939 30-215 partner): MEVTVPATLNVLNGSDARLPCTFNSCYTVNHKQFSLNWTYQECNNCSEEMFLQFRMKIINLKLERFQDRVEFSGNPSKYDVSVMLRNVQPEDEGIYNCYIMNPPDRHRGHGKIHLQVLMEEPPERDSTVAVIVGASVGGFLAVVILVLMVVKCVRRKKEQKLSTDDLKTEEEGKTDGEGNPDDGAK

`FC(F)(F)Oc1ccc(-c2ccc3onc(OCc4cnccn4)c3c2)cc1` [Example 151, 3-(pyrazin-2-ylmethoxy)-5-(4-(trifluoromethoxy)phenyl)benzo[d]isoxazole]: the inhibition at 10 µM on hNaV1.2 (SCN2A) turned out to be 18.6%. Further, the figures for the inhibition at 3 µM in assay [1] (setting [2]) and in assay [1] (setting [3]) were 43.3% and less than 5%, respectively.

With `Cc1nnc(COc2noc3c(F)cc(-c4ccc(OC(F)(F)F)cc4)cc23)o1` [Example 155, 7-fluoro-3-((5-methyl-1,3,4-oxadiazol-2-yl)methoxy)-5-(4-(trifluoromethoxy)phenyl)benzo[d]isoxazole], the inhibition at 10 µM on hNaV1.2 (SCN2A) amounted to 58.6%. Moreover, the inhibition at 3 µM in assay [1] (setting [2]) is 24.8%; in assay [1] (setting [3]) it was 8.4%.

In the case of `C[C@H](COc1noc2ccc(-c3ccc(OC(F)(F)F)cc3)cc12)N1CCCC1=O` [Example 119, (R)-1-(1-((5-(4-(trifluoromethoxy)phenyl)benzo[d]isoxazol-3-yl)oxy)propan-2-yl)pyrrolidin-2-one], the inhibition at 10 µM on hNaV1.2 (SCN2A) came to 52.3%. Moreover, the values for the inhibition at 3 µM in assay [1] (setting [2]) and in assay [1] (setting [3]) were 36.1% and 6.4%, respectively.

With `Cc1cc(-c2ccc(OC(F)(F)F)cc2)cc2c(OCc3cn(C)nn3)noc12` [Example 87, 7-methyl-3-((1-methyl-1H-1,2,3-triazol-4-yl)methoxy)-5-(4-(trifluoromethoxy)phenyl)benzo[d]isoxazole], the inhibition at 10 µM on hNaV1.2 (SCN2A) is 87%. The inhibition at 3 µM in assay [1] (setting [2]) is 54.7%; in assay [1] (setting [3]) it was 39%.

With `N#CCOc1noc2ccc(-c3ccc(OC(F)(F)F)cc3)cc12` [Example 103, 2-((5-(4-(trifluoromethoxy)phenyl)benzo[d]isoxazol-3-yl)oxy)acetonitrile], the inhibition at 10 µM on hNaV1.2 (SCN2A) was less than 5%. The inhibition at 3 µM in assay [1] (setting [2]) was 18.8%; in assay [1] (setting [3]), less than 5%.

Regarding `FC(F)(F)Oc1ccc(-c2ccc3onc(NCc4ncccn4)c3c2)cc1` [Example 126, N-(pyrimidin-2-ylmethyl)-5-(4-(trifluoromethoxy)phenyl)benzo[d]isoxazol-3-amine], the inhibition at 10 µM at hNaV1.2 (SCN2A) was less than 5%. Besides, the inhibition at 3 µM was 17.3% in assay [1] (setting [2]) and less than 5% in assay [1] (setting [3]).

On to `CN1CCC[C@H]1COc1noc2ccc(-c3ccc(OC(F)(F)F)cc3)cc12` [Example 71, (S)-3-((1-methylpyrrolidin-2-yl)methoxy)-5-(4-(trifluoromethoxy)phenyl)benzo[d]isoxazole], for which the inhibition at 10 µM at hNaV1.2 (SCN2A) stood at 89.6%. Besides, the figures for the inhibition at 3 µM in assay [1] (setting [2]) and in assay [1] (setting [3]) were 61.1% and 44.4%, respectively.

With `Cc1nccnc1COc1noc2ccc(-c3ccc(OC(F)(F)F)cc3)cc12` [Example 152, 3-((3-methylpyrazin-2-yl)methoxy)-5-(4-(trifluoromethoxy)phenyl)benzo[d]isoxazole], the inhibition at 10 µM on hNaV1.2 (SCN2A) was found to be 13.8%. Further, the inhibition at 3 µM in assay [1] (setting [2]) was 30.6%; in assay [1] (setting [3]), less than 5%.

In the case of `FC(F)(F)Oc1ccc(-c2ccc3onc(OCCNc4ncccn4)c3c2)cc1` [Example 123, N-(2-((5-(4-(trifluoromethoxy)phenyl)benzo[d]isoxazol-3-yl)oxy)ethyl)pyrimidin-2-amine], the inhibition at 10 µM at hNaV1.2 (SCN2A) is less than 5%. Further, the inhibition at 3 µM in assay [1] (setting [2]) is 27.3%; in assay [1] (setting [3]), less than 5%.

Take `FC(F)(F)c1ccc(-c2ccc3onc(OCc4ncccn4)c3c2)cc1` [Example 9, 3-(pyrimidin-2-ylmethoxy)-5-(4-(trifluoromethyl)phenyl)benzo[d]isoxazole]: the inhibition at 10 µM at hNaV1.2 (SCN2A) is less than 5%. In addition, the inhibition at 3 µM stood at 41.3% in assay [1] (setting [2]) and 10.3% in assay [1] (setting [3]).

Regarding `Fc1cc(C(F)(F)F)ccc1-c1ccc2onc(OCc3ncccn3)c2c1` [Example 6, 5-(2-fluoro-4-(trifluoromethyl)phenyl)-3-(pyrimidin-2-ylmethoxy)benzo[d]isoxazole], the inhibition at 10 µM at hNaV1.2 (SCN2A) was less than 5%. The inhibition at 3 µM came to 29.8% in assay [1] (setting [2]) and 12.6% in assay [1] (setting [3]).

In the case of `Cc1cc(-c2ccc(OC(F)(F)F)cc2)cc2c(OCc3nnc(C4CC4)o3)noc12` [Example 105, 3-((5-cyclopropyl-1,3,4-oxadiazol-2-yl)methoxy)-7-methyl-5-(4-(trifluoromethoxy)phenyl)benzo[d]isoxazole], the inhibition at 10 µM on hNaV1.2 (SCN2A) came out at 70.9%. In addition, the inhibition at 3 µM in assay [1] (setting [2]) turned out to be 9.4%; in assay [1] (setting [3]), 27.8%.

Take `O=C1CCCN1CCOc1noc2ccc(-c3ccc(OC(F)(F)F)cc3)cc12` [Example 59, 1-(2-((5-(4-(trifluoromethoxy)phenyl)benzo[d]isoxazol-3-yl)oxy)ethyl)pyrrolidin-2-one]: the inhibition at 10 µM at hNaV1.2 (SCN2A) was determined as 37.4%. For the same compound, the figures for the inhibition at 3 µM in assay [1] (setting [2]) and in assay [1] (setting [3]) were 19% and less than 5%, respectively.

`CN(C)c1noc2ccc(-c3ccc(OC(F)(F)F)cc3)cc12` [Example 133, N,N-dimethyl-5-(4-(trifluoromethoxy)phenyl)benzo[d]isoxazol-3-amine]: the inhibition at 10 µM on hNaV1.2 (SCN2A) stood at 29.2%. For the same compound, the inhibition at 3 µM came out at 38.8% in assay [1] (setting [2]) and 5.2% in assay [1] (setting [3]).

`CC(C)NC(=O)COc1noc2ccc(-c3ccc(OC(F)(F)F)cc3)cc12` [Example 122, N-isopropyl-2-((5-(4-(trifluoromethoxy)phenyl)benzo[d]isoxazol-3-yl)oxy)acetamide]: the inhibition at 10 µM on hNaV1.2 (SCN2A) is 29.7%. Further, the inhibition at 3 µM is 10.7% in assay [1] (setting [2]) and less than 5% in assay [1] (setting [3]).

Turning to `FC(F)(F)Oc1ccc(-c2ccc3onc(-n4cnc(C(F)(F)F)c4)c3c2)cc1` [Example 145, 5-(4-(trifluoromethoxy)phenyl)-3-(4-(trifluoromethyl)-1H-imidazol-1-yl)benzo[d]isoxazole], the inhibition at 10 µM at hNaV1.2 (SCN2A) stood at 75.8%. The inhibition at 3 µM was 93% in assay [1] (setting [2]) and less than 5% in assay [1] (setting [3]).

`O=C1NCC[C@H]1Oc1noc2ccc(-c3ccc(OC(F)(F)F)cc3)cc12` [Example 72, (R)-3-((5-(4-(trifluoromethoxy)phenyl)benzo[d]isoxazol-3-yl)oxy)pyrrolidin-2-one]: the inhibition at 10 µM on hNaV1.2 (SCN2A) turned out to be 75.4%. The inhibition at 3 µM in assay [1] (setting [2]) worked out at 17.7%; in assay [1] (setting [3]), 10.8%.

For the compound `Fc1cc(-c2ccc(OC(F)(F)F)cc2)cc2c(OCc3nnc(C4CC4)o3)noc12` [Example 104, 3-((5-cyclopropyl-1,3,4-oxadiazol-2-yl)methoxy)-7-fluoro-5-(4-(trifluoromethoxy)phenyl)benzo[d]isoxazole], at hNaV1.2 (SCN2A), the inhibition at 10 µM worked out at 57%. Moreover, the inhibition at 3 µM in assay [1] (setting [2]) was 23.6%; in assay [1] (setting [3]), 19.8%.

Take `O=C1OCCN1CCOc1noc2ccc(-c3ccc(OC(F)(F)F)cc3)cc12` [Example 75, 3-(2-((5-(4-(trifluoromethoxy)phenyl)benzo[d]isoxazol-3-yl)oxy)ethyl)oxazolidin-2-one]: the inhibition at 10 µM on hNaV1.2 (SCN2A) came to 27.1%. In addition, the inhibition at 3 µM is 36.9% in assay [1] (setting [2]) and less than 5% in assay [1] (setting [3]).

Take `Cc1nnc(C(C)Oc2noc3ccc(-c4ccc(OC(F)(F)F)cc4)cc23)o1` (centres unmarked) [Example 153, 3-(1-(5-methyl-1,3,4-oxadiazol-2-yl)ethoxy)-5-(4-(trifluoromethoxy)phenyl)benzo[d]isoxazole]: the inhibition at 10 µM at hNaV1.2 (SCN2A) turned out to be 53.7%. In assay [1] (setting [2]), the inhibition at 3 µM worked out at 57.6%.

With `CC(=O)N1CCOC[C@H]1COc1noc2ccc(-c3ccc(OC(F)(F)F)cc3)cc12` [Example 115, (S)-1-(3-(((5-(4-(trifluoromethoxy)phenyl)benzo[d]isoxazol-3-yl)oxy)methyl)morpholino)ethan-1-one], at hNaV1.2 (SCN2A), the inhibition at 10 µM amounted to 70.8%. The inhibition at 3 µM was 19.8% in assay [1] (setting [2]) and 18.3% in assay [1] (setting [3]).

In the case of `FC(F)(F)Oc1ccc(-c2ccc3onc(-n4ccnc4)c3c2)cc1` [Example 132, 3-(1H-imidazol-1-yl)-5-(4-(trifluoromethoxy)phenyl)benzo[d]isoxazole], the inhibition at 10 µM on hNaV1.2 (SCN2A) was less than 5%. Further, the values for the inhibition at 3 µM in assay [1] (setting [2]) and in assay [1] (setting [3]) were 20.6% and 5.1%, respectively.
